Measured values published in patent publication US12121500B2, “Inhibitors of Bunyaviridae and uses thereof” (priority 2020, dated 2024).
In brackets after ≈: the same amount, converted by molar mass. Read-outs that look alike come from different tables or passages of the source.

Tests used:
[1] = test system: RVFV; experiment: microbe, parasite or virus in culture; assay type: cell-based, Rift Valley Fever Virus
[2] = test system: Staphylococcus spp.; experiment: Inhibition of Staphylococcus spp. growth, broth microdilution; assay type: cell-based, S. saprophyticus or S. aureus; details: 16-24 hours, Mueller-Hinton broth, — = no measurable MIC80; for MIC80: Staphylococcus
[3] = test system: Escherichia coli; experiment: Inhibition of Escherichia coli growth, broth microdilution; assay type: cell-based; details: 16-24 hours, Mueller-Hinton broth, — = inactive; for MIC80: Escherichia coli, read-out: E. coli (MIC80)
[4] = test system: C. neoformans; experiment: Inhibition of C. neoformans growth, limiting dilution assay; assay type: cell-based, Cryptococcus neoformans; details: Cryptococcus neoformans; 48 hours at 35° C., YNB-02; read-out: C. neoformans (MIC80)
[5] = Quantitative cytotoxicity in Vero cells, crystal violet staining of EC50 plates; details: African green monkey
[6] = target: T1, human ribonuclease H1 (Homo sapiens, UniProt O60930); experiment: biochemical; assay type: biochemical
T1 construct: made in house; host or cells: E. coli
T1 sequence (O60930 1-286): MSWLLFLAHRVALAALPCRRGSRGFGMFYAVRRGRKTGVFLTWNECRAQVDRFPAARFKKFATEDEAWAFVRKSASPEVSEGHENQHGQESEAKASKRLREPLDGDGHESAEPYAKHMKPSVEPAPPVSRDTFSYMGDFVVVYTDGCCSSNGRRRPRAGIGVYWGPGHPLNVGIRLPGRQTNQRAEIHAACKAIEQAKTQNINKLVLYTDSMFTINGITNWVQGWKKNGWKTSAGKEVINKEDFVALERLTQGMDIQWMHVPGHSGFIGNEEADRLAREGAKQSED

[7] = Cytotoxicity in HepDES19 cells, MTS assay; details: human, HepDES19 cells (HepG2-derived hepatoblastoma cell line)
[8] = test system: RVFV strain MP12; experiment: microbe, parasite or virus in culture; assay type: cell-based, Rift Valley Fever Virus; details: for EC50: Rift Valley fever virus, Vero, read-out: Estimated EC50
[9] = test system: RVFV; experiment: microbe, parasite or virus in culture; assay type: cell-based, Rift Valley Fever Virus; details: Rift Valley fever virus, A549, 24 h
[10] = in vitro; details: African green monkey
[11] = in vitro; details: human
[12] = test system: HepDES19; experiment: Cytotoxicity in HepDES19 cells, MTS assay; details: read-out: CC50 HepDES19; HepDES19 cells, 3 days, MTS; * marks limit value
[13] = Rift Valley fever virus, Vero, 24 h, read-out: RVFV (EC50, μM)

Row | Compound | EC50 [1, 13] | MIC80 [2] | MIC80 [3] | MIC80 [4] | CC50 at 1 day [5] | Human RNaseH1 (IC50, μM) [6] | IC50 [6] | Staphylococcus spp. (MIC80, μM) [2] | E. coli (MIC80, μM) [3] | CC50 at 3 days [7] | EC50 [8] | IC50 ([6]; read-out: Human RNaseH1 (IC50)) | EC50 [9] | EC50 ([9]; read-out: EC50 in A549 cells) | CC50 [10] | CC50 [11] | CC50 [12] | activity against RVFV in the primary screen, in words [8] | EC50 ([1]; read-out: RVFV (EC50))
1 | CC(C)c1ccc(O)c(=O)c(O)c1 [Compound 46, β-thujaplicinol] | 13.8 µM | 20 µM (≈ 3.6 µg/mL) | 44 µM (≈ 7.93 µg/mL) | 8 µM (≈ 1.44 µg/mL) | > 250 µM |  |  |  |  |  |  |  |  |  |  |  |  |  | 
2 | Cc1cc(O)c(=O)c(O)cc1C(=O)c1ccc(-c2ccncc2)cc1 [Compound 260] | 31.6 µM |  |  | 50 µM (≈ 16.7 µg/mL) | > 250 µM | poorly active or inactive | 277 µM | poorly active or inactive | poorly active or inactive | 45 µM |  |  |  |  |  |  |  |  | 
3 | Cc1cc(O)c(=O)c(O)cc1C(=O)c1cccs1 [Compound 308] | 0.54 µM | 44 µM (≈ 11.5 µg/mL) | 25 µM (≈ 6.56 µg/mL) | 11 µM (≈ 2.89 µg/mL) | 217 µM |  |  |  |  |  | 2 µM | 46 µM | 8.36 µM | 8.4 µM | 111 µM | 119 µM |  |  | 
4 | Cc1cc(O)c(=O)c(O)cc1C(=O)c1ccccc1O [Compound 311] | 11.6 µM | 67 µM (≈ 18.2 µg/mL) | 30 µM (≈ 8.17 µg/mL) | 15 µM (≈ 4.08 µg/mL) | > 250 µM |  | 26 µM |  |  |  | 3 µM |  |  |  | 115 µM |  |  |  | 
5 | CC(=O)c1c(C)cc(O)c(=O)c(O)c1-c1ccccc1 [Compound 330] | 9.5 µM | 44 µM (≈ 11.9 µg/mL) |  | 4 µM (≈ 1.08 µg/mL) | > 300 µM |  | 476 µM |  |  | 56.2 µM | 2 µM |  | 42.6 µM |  |  | ≥ 120 µM |  |  | 
6 | CC(=O)c1c(C)cc(O)c(=O)c(O)c1-c1cccc2ccccc12 [Compound 331] | 15.8 µM | 67 µM (≈ 21.5 µg/mL) |  | 11 µM (≈ 3.52 µg/mL) | 80.4 µM |  | 448 µM |  |  | 36.6 µM | 2 µM |  | 17.7 µM |  |  | ≥ 120 µM |  |  | 
7 | Cc1cc(O)c(=O)c(O)cc1C(=O)c1ccc(Br)cc1 [Compound 358] | 9 µM |  | 20 µM (≈ 6.7 µg/mL) | 11 µM (≈ 3.69 µg/mL) | > 250 µM |  | 43 µM |  |  | 12.5 µM |  |  |  |  |  |  |  |  | 
8 | Cc1cc(O)c(=O)c(O)cc1C(=O)c1cccc(Br)c1 [Compound 359] | 5.1 µM |  |  | 24 µM (≈ 8.04 µg/mL) | 170 µM |  |  |  |  |  | 4 µM |  |  |  |  |  | 19.4 µM |  | 
9 | Cc1cc(O)c(=O)c(O)c(O)c1C(=O)c1ccc(-c2ccccc2)cc1 [Compound 362] | 2.6 µM |  |  | 24 µM (≈ 8.36 µg/mL) | 77.8 µM |  |  |  | inactive |  | 6 µM | 212 µM |  |  |  |  | 5.4 µM |  | 
10 | Cc1cc(O)c(=O)c(O)cc1C(=O)NCc1ccccc1 [Compound 388] | 9 µM | 67 µM (≈ 19.1 µg/mL) | 67 µM (≈ 19.1 µg/mL) | 11 µM (≈ 3.14 µg/mL) | 239 µM |  | 166 µM |  |  | 19.8 µM | 19 µM |  |  |  |  |  |  | active | 
11 | Cc1cc(O)c(=O)c(O)cc1C(=O)Nc1ccccc1 [Compound 389] | 8.8 µM | 44 µM (≈ 11.9 µg/mL) | 44 µM (≈ 11.9 µg/mL) | 3.5 µM (≈ 0.949 µg/mL) | > 250 µM | nearly inactive | 309 µM | good to moderate activity | good to moderate activity | 26.5 µM | 16 µM |  |  |  |  |  |  | active | 
12 | C/C(=N\c1cccc(Oc2ccccc2)c1)c1c(C)cc(=O)n(O)c1O [Compound 515] | 24.3 µM |  |  | 11 µM (≈ 3.85 µg/mL) | > 120 µM |  | 622 µM |  |  | 71.3 µM | 14 µM |  | ≥ 120 µM |  | ≥ 120 µM | 93.6 µM |  |  | 
13 | C/C(=N\c1ccc(C(F)(F)F)cc1)c1c(C)cc(=O)n(O)c1O [Compound 517] | > 120 µM |  |  | 24 µM (≈ 7.83 µg/mL) | > 120 µM |  | 135 µM |  |  | 91 µM | 13 µM |  | 95.8 µM |  | ≥ 120 µM | 71.8 µM |  |  | 
14 | C/C(=N\c1ccc(Cl)c(Cl)c1)c1c(C)cc(O)n(O)c1=O [Compound 670] | 14 to 20 µM |  |  | 69 µM (≈ 22.6 µg/mL) | > 120 µM |  |  |  |  |  | 10 µM | 356 µM | 15.3 µM |  | ≥ 120 µM | ≥ 120 µM | 69 µM |  | 14 µM
15 | CCCCSc1ccc(SCCCC)c(O)c(=O)c1O [Compound 694] | 3.7 µM | 9 µM (≈ 2.83 µg/mL) |  | 2.3 µM (≈ 0.723 µg/mL) | 22.1 µM |  | > 500 µM |  |  |  | 6 µM |  |  |  | ≥ 120 µM |  | 1.8 µM |  | 
16 | CC(C)Sc1ccc(SC(C)C)c(O)c(=O)c1O [Compound 696] | 6 µM | 13 µM (≈ 3.72 µg/mL) | 20 µM (≈ 5.73 µg/mL) | 1.5 µM (≈ 0.43 µg/mL) | 56.5 µM |  |  |  |  |  | 12 µM |  |  |  | 118 µM |  | 14.1 µM |  | 
17 | CCCCCCSc1cccc(O)c(=O)c1O [Compound 840] | 31.6 µM |  |  | 1 µM (≈ 0.254 µg/mL) | > 120 µM |  | 73 µM |  |  | 21.5 µM | 14 µM |  | 15.4 µM |  | ≥ 120 µM | ≥ 120 µM |  |  | 
18 | Cc1cc(O)c(=O)c(O)cc1C(=O)NC(CCC(=O)OC(C)(C)C)C(=O)OC(C)(C)C (stereo not shown) [Compound 867] | 8.7 µM |  |  | 9 µM (≈ 3.94 µg/mL) | > 120 µM |  | > 500 µM |  |  |  | 7 µM |  | 33 µM |  | ≥ 120 µM | ≥ 120 µM | 5.2 µM |  | 
19 | Cc1cc(O)c(=O)c(O)cc1C(=O)N1CCN(C(c2ccc(F)cc2)c2ccc(F)cc2)CC1 [Compound 1017] | 8 µM |  |  | 6 µM (≈ 2.8 µg/mL) | 54.7 µM |  |  |  |  |  | 3 µM |  |  |  | ≥ 120 µM |  | 3.9 µM |  | 
